Details: 101.33 kPa, Liquid; for kinematic viscosity: Capillary tube (Ostwald / Ubbelohde) method; for mass density: Pycnometric method

OCCO [1,2-ethanediol]
Details	kinematic viscosity [m2/s]	mass density [kg/m3]
273.15 K	5.1e-05	1127.43
283.15 K	2.96e-05	1120.35
293.15 K	1.92e-05	1113.25
303.15 K	1.28e-05	1106.26
313.15 K	8.8e-06	1099.2
323.15 K	6.22e-06	1092.07
333.15 K	4.6e-06	1084.84

From the NIST ThermoML archive (doi:10.1016/j.jct.2018.09.031)
